Experimental data published in ChEMBL document CHEMBL5465560, “Selectivity Literature for EUbOPEN Chemogenomic Library” (2024).
Numbering of substitutions follows the chain as printed.

Tests used:
Conditions in all cases: at 100 nM
[1] = test system: Receptor-type tyrosine-protein kinase FLT3 (Homo sapiens), P36888 [UNDEFINED MUTATION]; assay: (§1) Selectivity interaction (KinomeScan (DiscoverX)) EUB0000695a FLT3
[2] = test system: T1, Receptor-type tyrosine-protein kinase FLT3 (Homo sapiens), P36888 [D835Y]; assay: as §1
T1 sequence (whole entry): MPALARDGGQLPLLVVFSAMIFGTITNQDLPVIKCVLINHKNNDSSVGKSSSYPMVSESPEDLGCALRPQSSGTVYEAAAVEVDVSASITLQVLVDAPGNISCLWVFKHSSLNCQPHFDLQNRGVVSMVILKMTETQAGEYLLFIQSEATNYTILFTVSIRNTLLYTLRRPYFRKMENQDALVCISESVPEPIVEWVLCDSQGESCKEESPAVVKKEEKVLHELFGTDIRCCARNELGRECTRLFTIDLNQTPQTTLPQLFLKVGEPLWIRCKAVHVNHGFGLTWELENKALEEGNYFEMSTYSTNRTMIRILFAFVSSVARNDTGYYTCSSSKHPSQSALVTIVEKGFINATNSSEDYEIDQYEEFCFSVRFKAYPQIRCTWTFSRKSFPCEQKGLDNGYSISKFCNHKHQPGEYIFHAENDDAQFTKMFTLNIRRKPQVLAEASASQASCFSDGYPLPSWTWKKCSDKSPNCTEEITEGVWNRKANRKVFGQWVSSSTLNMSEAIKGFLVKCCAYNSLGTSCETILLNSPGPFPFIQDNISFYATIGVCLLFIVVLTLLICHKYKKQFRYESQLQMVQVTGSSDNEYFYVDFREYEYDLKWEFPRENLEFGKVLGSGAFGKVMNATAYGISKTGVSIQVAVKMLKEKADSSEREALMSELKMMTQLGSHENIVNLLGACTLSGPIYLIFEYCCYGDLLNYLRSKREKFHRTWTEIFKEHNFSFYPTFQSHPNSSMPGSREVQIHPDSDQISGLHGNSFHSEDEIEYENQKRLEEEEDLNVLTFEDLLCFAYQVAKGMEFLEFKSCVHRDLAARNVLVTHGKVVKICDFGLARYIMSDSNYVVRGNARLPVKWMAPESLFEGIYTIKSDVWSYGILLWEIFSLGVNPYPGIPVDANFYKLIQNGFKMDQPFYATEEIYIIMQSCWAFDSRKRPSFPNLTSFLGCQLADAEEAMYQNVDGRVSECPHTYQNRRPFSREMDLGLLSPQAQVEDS

[3] = test system: T2, Receptor-type tyrosine-protein kinase FLT3 (Homo sapiens), P36888 [N841I]; assay: as §1
T2 sequence (whole entry): T1 sequence (whole entry) with Y835D, N841I

[4] = test system: T3, Receptor-type tyrosine-protein kinase FLT3 (Homo sapiens), P36888 [D835V]; assay: as §1
T3 sequence (whole entry): T1 sequence (whole entry) with Y835V

How did the % of control [1] turn out when `Cc1cc(F)c(C(=O)Nc2cccc(-c3nncn3C(C)C)n2)cc1-n1cnc(C2CC2)c1` was run?
The % of control was 100%.

And the % of control [2]?
Its % of control is 100%.

And the % of control [3]?
Its % of control is 93%.

And the % of control [4]?
Its % of control is 100%.
